Patent US20250074911A1, “MACROCYCLIC BTK INHIBITORS” (Crossfire Oncology Holding B.V., priority 2021, published 2025)
Where “and” joins values, the source holds several entries; their conditions need not be identical. Equal entries are not always repeated.

How the values were obtained:
BTK T474S = BTK T474S (Homo sapiens (Human), UniProt Q06187, T474S); assay: Binding kinetics measurements (Surface Plasmon Resonance) on BTK T474S; conditions: for residence time: SPR binding kinetics, BTK T474S, read-out: Tau (h) BTK T474S (Act), target residence time (converted); for Kd: binding affinity by Surface Plasmon Resonance (SPR)
BTK T474S, sequence (Q06187 whole entry T474S): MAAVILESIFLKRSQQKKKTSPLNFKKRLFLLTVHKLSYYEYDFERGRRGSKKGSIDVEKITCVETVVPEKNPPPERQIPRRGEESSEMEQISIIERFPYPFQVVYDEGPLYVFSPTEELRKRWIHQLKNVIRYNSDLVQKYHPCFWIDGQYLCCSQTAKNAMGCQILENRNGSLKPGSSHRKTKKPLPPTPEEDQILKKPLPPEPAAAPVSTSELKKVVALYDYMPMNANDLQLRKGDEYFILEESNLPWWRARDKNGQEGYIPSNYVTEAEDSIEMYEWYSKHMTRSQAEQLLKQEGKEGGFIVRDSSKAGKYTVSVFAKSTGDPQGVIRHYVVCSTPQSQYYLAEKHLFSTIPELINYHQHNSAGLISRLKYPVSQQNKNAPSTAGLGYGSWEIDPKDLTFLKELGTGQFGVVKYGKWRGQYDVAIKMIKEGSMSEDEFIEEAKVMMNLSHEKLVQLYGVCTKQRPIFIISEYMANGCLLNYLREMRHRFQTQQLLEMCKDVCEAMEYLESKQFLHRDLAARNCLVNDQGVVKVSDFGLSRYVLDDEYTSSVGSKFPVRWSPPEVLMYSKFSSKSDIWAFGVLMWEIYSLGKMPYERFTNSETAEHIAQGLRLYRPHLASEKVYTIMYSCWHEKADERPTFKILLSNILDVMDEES
Description: (§1) Binding kinetics measurements on wt-BTK, BTK […], BTK […], BTK […] and BTK […] (Surface Plasmon Resonance) Streptavidin-coated chips (Cat. No. BR100531), disposables and maintenance kits for Biacore were purchased from Cytiva (Eindhoven, The Netherlands). […] Remaining streptavidin was blocked with biocytin. Immobilization was performed at 4° C. Subsequent assay steps were conducted at 22° C. After changing buffer to Biacore buffer with 1% (v/v) dimethylsulfoxide (DMSO), a pre-run was performed for a period of at least 30 min at a flow rate of 30 μl/min to obtain a stable surface. The kinetic constants of the compounds were determined with single cycle kinetics with five consecutive injections with an increasing compound concentration with ranges of 3.16-316 nM. […] To circumvent problems of mass transport limitation, a flow rate of 30 μl/min was used. A blank run with the same conditions was performed before the compound was injected. The SPR sensorgrams were analyzed with Biacore Evaluation Software by using a method of double referencing. First the reference channel was subtracted from the channel containing immobilized protein. Subsequently, the reference curve obtained with buffer injections was subtracted. […] Compounds that bound according to an induced fit model were fitted with a two-state reaction model. The kinetic constants (ka, […], KD) of duplicates were geometrically averaged. […] Target residence for an induced fit model was calculated as described (Tummino and Copeland, 2008).

[1] = target: full-length wt-BTK enzyme (Homo sapiens (Human), UniProt Q06187); assay: Biochemical kinase assay wt-BTK (IMAP)
full-length wt-BTK enzyme, sequence (Q06187 whole entry): as the sequence (Q06187 whole entry T474S) above, with S474T counted along it
Outline: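 Compound and enzyme (final 1.2 nM) were pre-incubated for 1 h at RT, after which the reaction was started with 4 μM ATP plus 50 nM fluorescein-MBP substrate peptide. After 2 h in the dark, the IMAP progressive binding reagent stopped the reaction, and phosphorylation was read by fluorescence polarization.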

BTK T316A = BTK T316A (Homo sapiens (Human), UniProt Q06187, T316A); assay: Binding kinetics measurements (Surface Plasmon Resonance) on BTK T316A; conditions: for Tau (h) BTK T316A (Act): target residence time, SPR; for Kd: binding affinity by Surface Plasmon Resonance (SPR)
BTK T316A, sequence (Q06187 whole entry T316A): as the sequence (Q06187 whole entry T474S) above, with T316A, S474T counted along it
Description: as §1

[2] = test system: wt-TMD8 diffuse large B-cell lymphoma cells; assay: Cell proliferation assay wt-TMD8 (ATPlite, 120 hours); format: cell-based; conditions: B-cell; wt-TMD8 cells, 120 hours, ATPlite; read-out: IC50 wt-TMD8
Outline: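 Readout is percentage growth from ATPlite 1Step luminescence after 5 days (120 h) compound treatment of wt-TMD8 lymphoma cells (1600/well, RPMI-1640 + 10% FBS). Time-zero signal separates growth inhibition from cell kill; 0.3% DMSO wells without compound define maximal growth.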

[3] = target: full-length BTK C481S enzyme (Homo sapiens (Human), UniProt Q06187, C481S); assay: Biochemical kinase assay BTK C481S (IMAP)
full-length BTK C481S enzyme, sequence (Q06187 whole entry C481S): as the sequence (Q06187 whole entry T474S) above, with S474T, C481S counted along it
Outline: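 IC50 values come from IMAP fluorescence polarization after quenching with progressive binding solution. The reaction ran 2 h at room temperature in the dark with 1.2 nM full-length C481S enzyme, 7 μM ATP and 50 nM fluorescein-labelled MBP-derived peptide, following a 1 h dark pre-incubation of compound with enzyme.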

wt-BTK = wt-BTK (Homo sapiens (Human), UniProt Q06187); assay: Binding kinetics measurements (Surface Plasmon Resonance) on wt-BTK; conditions: for Kd: binding affinity by Surface Plasmon Resonance (SPR); for Tau (h) wt-BTK (Act): target residence time, SPR
wt-BTK, sequence (Q06187 whole entry): as the sequence (Q06187 whole entry T474S) above, with S474T counted along it
Outline: (§2)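 Constants come from single-cycle kinetics: five rising compound injections (3.16-316 nM) at 30 μl/min and 22° C over streptavidin-captured BTK (wild type or mutant), running buffer containing 1% DMSO. Double referencing applied; induced-fit binders fitted to a two-state model; duplicates geometrically averaged; residence time derived.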

BTK T474I = BTK T474I (Homo sapiens (Human), UniProt Q06187, T474I); assay: Binding kinetics measurements (Surface Plasmon Resonance) on BTK T474I; conditions: for Kd: binding affinity by Surface Plasmon Resonance (SPR); for Tau (h) BTK T474I (Act): target residence time, SPR
BTK T474I, sequence (Q06187 whole entry T474I): as the sequence (Q06187 whole entry T474S) above, with S474I counted along it
Outline: as §2

REC-1 T474I cell lines = assay: Cell proliferation assay REC-1 BTK T474I knock-in cells (ATPlite, 72 hours); format: cell-based; conditions: Homo sapiens, Rec1; 72 hours; read-out: IC50 REC-1 T474I
Outline: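 REC-1 cells carrying CRISPR knock-in mutant BTK, single-cell cloned and sequence-confirmed, were exposed to compound for 72 h and read by ATPlite luminescence. Percentage growth was calculated against the signal at the start of incubation and against untreated 0.3% DMSO wells as maximum growth.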

[4] = test system: wt-REC-1 mantle cell lymphoma cells; assay: Cell proliferation assay wt-REC-1 (ATPlite, 72 hours); format: cell-based; conditions: 72 h; read-out: IC50 wt-REC-1
Outline: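 Luminescent viability read over 72 h, start-of-incubation signal recorded separately to separate growth from cell death. Percentage growth referenced to compound-free 0.3% DMSO wells; IC50 from 4-parameter logistic fit.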

BTK C481S = BTK C481S (Homo sapiens (Human), UniProt Q06187, C481S); assay: Binding kinetics measurements (Surface Plasmon Resonance) on BTK C481S; conditions: for Kd: binding affinity by Surface Plasmon Resonance (SPR); for Tau (h) BTK C418S (Act): target residence time for BTK C481S, SPR
BTK C481S, sequence (Q06187 whole entry C481S): as the sequence (Q06187 whole entry T474S) above, with S474T, C481S counted along it
Outline: as §2

| residence time (BTK T474S) | Kd (BTK T474S) | IC50 [1] | Tau (h) BTK T316A (Act) (BTK T316A) | IC50 [2] | IC50 [3] | Kd (wt-BTK) | Tau (h) wt-BTK (Act) (wt-BTK) | Kd (BTK T474I) | IC50 [4] | Kd (BTK C481S) | Tau (h) BTK C418S (Act) (BTK C481S) | Kd (BTK T316A) | Tau (h) BTK T474I (Act) (BTK T474I) | Compound | IC50 (REC-1 T474I cell lines) |
| --- | --- | --- | --- | --- | --- | --- | --- | --- | --- | --- | --- | --- | --- | --- | --- |
| – | < 5 nM | < 5 nM | – | < 100 nM | < 5 nM | < 5 nM | – | 10 to 50 nM and < 5 nM | 100 to 1000 nM | < 5 nM | 0.98 h | < 5 nM | – | Nc1ncc2c3c1c(-c1ccc(C(=O)Nc4ccccn4)cc1)nn3[C@@H]1CCC[C@H](C1)NC(=O)CCCC/C=C\C2 [Example 100b] | 500 to 10000 nM |
| 6.36 h | < 3 nM | < 5 nM | 10.42 h | < 100 nM | < 5 nM | < 5 nM | 5.28 h | < 2 nM | < 100 nM | < 5 nM | 1.73 h | < 5 nM | – | Nc1ncc2c3c1c(-c1ccc(C(=O)Nc4cc(C(F)(F)F)ccn4)cc1)nn3[C@@H]1CCC[C@H](C1)NC(=O)[C@@H]1CCN(C/C=C/2)C1 [Example 147] | < 100 nM |
| 8.71 h | < 3 nM | < 5 nM | 3.60 h | < 100 nM | < 5 nM | < 5 nM | 5.24 h | < 2 nM | < 100 nM | < 5 nM | 14.35 h | < 5 nM | 1.12 h | CN1C/C=C/c2cnc(N)c3c(-c4ccc(C(=O)Nc5cc(C(F)(F)F)ccn5)cc4)nn(c23)[C@@H]2CCC[C@H](C2)NC(=O)CC1 [Example 17] | < 100 nM |
| 1.96 h | < 3 nM | < 5 nM | 2.06 h | < 100 nM | < 5 nM | < 5 nM | 2.14 h | < 2 nM | < 100 nM | < 5 nM | 7.92 h | < 5 nM | – | C[C@@H]1CCn2nc(-c3ccc(C(=O)Nc4cc(C(F)(F)F)ccn4)cc3)c3c(N)ncc(c32)/C=C/CO[C@H](C)C(=O)N1 [Example 57] | 500 to 10000 nM |
| – | < 3 nM | < 5 nM | – | < 100 nM | < 5 nM | < 5 nM | 1.37 h | 10 to 50 nM and < 5 nM | < 100 nM | < 5 nM | 1.44 h | < 5 nM | – | Nc1ncc2c3c1c(-c1ccc(C(=O)Nc4ccccn4)cc1)nn3[C@@H]1CCC[C@H](C1)C(=O)NCCCCC/C=C\C2 [Example 88b] | 500 to 10000 nM |
| 2.02 h | – | < 5 nM | 7.64 h | < 100 nM | < 5 nM | – | 3.41 h | – | < 100 nM | – | 6.32 h | – | 2.05 h | C[C@@H]1CC(=O)N[C@@H]2CCC[C@H](C2)n2nc(-c3ccc(C(=O)Nc4cc(C#N)ccn4)cc3)c3c(N)ncc(c32)/C=C/CCO1 [Example 162] | < 100 nM |

More lines, now with the values behind:

| Compound | residence time (BTK T474S) | Kd (BTK T474S) | IC50 [1] | Tau (h) BTK T316A (Act) (BTK T316A) | IC50 [2] | IC50 [3] | Kd (wt-BTK) | Tau (h) wt-BTK (Act) (wt-BTK) | Kd (BTK T474I) | IC50 [4] | Kd (BTK C481S) | Tau (h) BTK C418S (Act) (BTK C481S) | Kd (BTK T316A) | Tau (h) BTK T474I (Act) (BTK T474I) | IC50 (REC-1 T474I cell lines) |
| --- | --- | --- | --- | --- | --- | --- | --- | --- | --- | --- | --- | --- | --- | --- | --- |
| Nc1ncc2c3c1c(-c1ccc(C(=O)Nc4cc(C(F)(F)F)ccn4)cc1)nn3[C@@H]1CCC[C@H](C1)C(=O)NCCCC/C=C\C2 [Example 85b] | 4.36 h | < 3 nM | < 5 nM | 2.50 h | < 100 nM | < 5 nM | < 5 nM | 4.08 h | 10 to 50 nM and < 5 nM | < 100 nM | < 5 nM | 7.12 h | – | – | 100 to 500 nM |
| Nc1ncc2c3c1c(-c1ccc(C(=O)Nc4cc(C(F)(F)F)ccn4)cc1)nn3[C@@H]1CCC[C@H](C1)NC(=O)CCOCC/C=C/2 [Example 26] | 1.79 h | < 3 nM | < 5 nM | 3.22 h | < 100 nM | < 5 nM | < 5 nM | 5.89 h | < 2 nM | < 100 nM | < 5 nM | 6.65 h | < 5 nM | 5.95 h | < 100 nM |
| COc1ccc(F)cc1C(=O)NCc1ccc(-c2nn3c4c(cnc(N)c24)/C=C/CCCCCC(=O)N[C@H](C)CC3)cc1 [Example 139] | 2.11 h | < 3 nM | < 5 nM | – | < 100 nM | < 5 nM | < 5 nM | 1.38 h | 10 to 50 nM and < 5 nM | 100 to 1000 nM | < 5 nM | 1.36 h | < 5 nM | – | 100 to 500 nM |
| N#Cc1ccnc(NC(=O)c2ccc(-c3nn4c5c(cnc(N)c35)/C=C/CCOCCC(=O)N[C@@H]3CCC[C@@H]4C3)cc2)c1 [Example 155] | 3.8 h | < 3 nM | < 5 nM | 2.91 h | < 100 nM | < 5 nM | < 5 nM | 9.97 h | < 2 nM | < 100 nM | < 5 nM | 2.21 h | < 5 nM | 2.63 h | < 100 nM |
| Nc1ncc2c3c1c(-c1ccc(C(=O)Nc4cc(C(F)(F)F)ccn4)cc1)nn3[C@@H]1CCC[C@H](C1)NC(=O)COC/C=C/2 [Example 49] | 4.63 h | < 3 nM | < 5 nM | 2.20 h | < 100 nM | < 5 nM | < 5 nM | 3.20 h | < 2 nM | < 100 nM | < 5 nM | 4.75 h | < 5 nM | – | 100 to 500 nM |
| Nc1ncc2c3c1c(-c1ccc(C(=O)Nc4cc(C(F)(F)F)ccn4)cc1)nn3[C@@H]1CCC[C@H](C1)NC(=O)CCC/C=C/2 [Example 47] | 2.76 h | < 3 nM | < 5 nM | 1.91 h | < 100 nM | < 5 nM | < 5 nM | 2.66 h | < 2 nM | 100 to 1000 nM | < 5 nM | 4.68 h | < 5 nM | 0.86 h | 100 to 500 nM |
| CC1NC/C=C/c2cnc(N)c3c(-c4ccc(C(=O)Nc5cc(C(F)(F)F)ccn5)cc4)nn(c23)[C@@H]2CCC[C@H](C2)NC1=O (single isomer, unassigned) [Example 146] | 2.69 h | < 3 nM | – | 2.12 h | < 100 nM | – | < 5 nM | 3.88 h | 10 to 50 nM and < 5 nM | < 100 nM | < 5 nM | 5.76 h | < 5 nM | – | 100 to 500 nM |
